Converted amounts (≈) assume the structure as drawn.
Legend:
[1] = SUPPLEMENTARY: PAMPA permeability assay; format: physicochemical; conditions: read-out: Permeability
[2] = SUPPLEMENTARY: Lyophilisation Solubility Assay (LYSA); format: physicochemical; conditions: read-out: Kinetic_solubility
[3] = biological target: T1, Carnitine O-palmitoyltransferase 1, liver isoform (Rattus norvegicus, UniProt P32198); assay: (§1) SUPPLEMENTARY: Inhibition of Carnitine palmitoyltransferase 1, liver isoform
T1 sequence (P32198 whole entry): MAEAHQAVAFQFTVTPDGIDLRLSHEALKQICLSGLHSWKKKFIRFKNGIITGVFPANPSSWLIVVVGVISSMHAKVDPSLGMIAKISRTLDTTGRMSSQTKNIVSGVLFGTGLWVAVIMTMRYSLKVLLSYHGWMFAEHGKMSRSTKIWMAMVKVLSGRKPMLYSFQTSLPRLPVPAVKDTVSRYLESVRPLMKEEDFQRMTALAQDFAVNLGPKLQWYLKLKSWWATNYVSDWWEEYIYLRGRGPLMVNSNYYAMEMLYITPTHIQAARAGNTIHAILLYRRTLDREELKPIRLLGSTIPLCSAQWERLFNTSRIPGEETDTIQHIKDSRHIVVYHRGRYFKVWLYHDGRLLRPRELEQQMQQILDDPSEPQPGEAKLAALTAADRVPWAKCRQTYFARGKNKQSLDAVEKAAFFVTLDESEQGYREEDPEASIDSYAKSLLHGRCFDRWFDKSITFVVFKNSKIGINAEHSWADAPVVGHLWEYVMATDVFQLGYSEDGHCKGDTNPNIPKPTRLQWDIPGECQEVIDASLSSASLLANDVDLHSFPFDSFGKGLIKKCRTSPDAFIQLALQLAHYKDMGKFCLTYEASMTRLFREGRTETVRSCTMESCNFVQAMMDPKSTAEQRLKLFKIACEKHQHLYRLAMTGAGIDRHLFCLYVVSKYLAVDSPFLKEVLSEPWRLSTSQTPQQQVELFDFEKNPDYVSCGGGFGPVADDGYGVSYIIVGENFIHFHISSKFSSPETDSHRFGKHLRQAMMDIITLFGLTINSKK

[4] = biological target: T2, Carnitine O-palmitoyltransferase 1, liver isoform (Homo sapiens, UniProt P50416); assay: as §1
T2 sequence (P50416 whole entry): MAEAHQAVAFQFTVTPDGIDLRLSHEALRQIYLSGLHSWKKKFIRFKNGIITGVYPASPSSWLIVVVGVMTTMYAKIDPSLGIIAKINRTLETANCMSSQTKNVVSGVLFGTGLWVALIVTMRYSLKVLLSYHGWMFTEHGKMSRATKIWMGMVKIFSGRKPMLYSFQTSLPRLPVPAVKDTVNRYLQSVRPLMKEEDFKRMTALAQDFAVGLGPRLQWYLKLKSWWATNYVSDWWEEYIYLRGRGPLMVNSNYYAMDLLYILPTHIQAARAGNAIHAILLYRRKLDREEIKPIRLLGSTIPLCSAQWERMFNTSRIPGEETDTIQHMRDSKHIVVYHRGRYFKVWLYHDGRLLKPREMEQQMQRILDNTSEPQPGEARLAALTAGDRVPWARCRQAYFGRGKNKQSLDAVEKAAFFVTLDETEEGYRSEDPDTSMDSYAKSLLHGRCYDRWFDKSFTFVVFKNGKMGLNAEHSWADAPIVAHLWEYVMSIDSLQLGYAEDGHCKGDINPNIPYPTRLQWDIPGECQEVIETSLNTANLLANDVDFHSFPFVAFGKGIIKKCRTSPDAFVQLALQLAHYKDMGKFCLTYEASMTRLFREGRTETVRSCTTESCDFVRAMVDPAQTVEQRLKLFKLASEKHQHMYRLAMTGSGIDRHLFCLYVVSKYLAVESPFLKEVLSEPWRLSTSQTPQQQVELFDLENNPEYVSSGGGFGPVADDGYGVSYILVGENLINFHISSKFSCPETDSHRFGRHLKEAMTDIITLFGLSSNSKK

[5] = SUPPLEMENTARY: Lipophilicity (log D) Determination by high-throughput shake-flask; format: physicochemical; conditions: octanol/water
[6] = biological target: T3, Carnitine O-palmitoyltransferase 2, mitochondrial (Homo sapiens, UniProt P23786); assay: (§2) SUPPLEMENTARY: Inhibition of Carnitine palmitoyltransferase 2
T3 sequence (P23786 whole entry): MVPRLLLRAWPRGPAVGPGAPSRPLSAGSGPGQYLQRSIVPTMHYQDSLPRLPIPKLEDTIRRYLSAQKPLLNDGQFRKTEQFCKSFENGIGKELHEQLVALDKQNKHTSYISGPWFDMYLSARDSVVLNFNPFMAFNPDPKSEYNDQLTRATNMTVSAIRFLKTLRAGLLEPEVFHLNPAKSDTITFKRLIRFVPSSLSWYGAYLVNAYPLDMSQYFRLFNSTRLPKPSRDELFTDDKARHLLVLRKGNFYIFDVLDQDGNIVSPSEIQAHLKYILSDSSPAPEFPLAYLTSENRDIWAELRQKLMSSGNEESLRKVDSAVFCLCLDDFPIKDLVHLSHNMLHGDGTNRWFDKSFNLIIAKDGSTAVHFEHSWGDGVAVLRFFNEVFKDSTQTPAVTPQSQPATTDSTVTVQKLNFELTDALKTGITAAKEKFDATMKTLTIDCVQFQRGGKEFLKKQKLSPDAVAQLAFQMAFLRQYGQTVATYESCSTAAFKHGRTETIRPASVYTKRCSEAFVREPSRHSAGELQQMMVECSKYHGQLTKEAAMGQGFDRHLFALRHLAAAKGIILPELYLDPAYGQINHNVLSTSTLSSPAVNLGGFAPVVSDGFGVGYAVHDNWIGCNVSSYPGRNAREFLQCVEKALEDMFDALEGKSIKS

[7] = biological target: T4, Carnitine O-palmitoyltransferase 2, mitochondrial (Rattus norvegicus, UniProt P18886); assay: as §2
T4 sequence (P18886 whole entry): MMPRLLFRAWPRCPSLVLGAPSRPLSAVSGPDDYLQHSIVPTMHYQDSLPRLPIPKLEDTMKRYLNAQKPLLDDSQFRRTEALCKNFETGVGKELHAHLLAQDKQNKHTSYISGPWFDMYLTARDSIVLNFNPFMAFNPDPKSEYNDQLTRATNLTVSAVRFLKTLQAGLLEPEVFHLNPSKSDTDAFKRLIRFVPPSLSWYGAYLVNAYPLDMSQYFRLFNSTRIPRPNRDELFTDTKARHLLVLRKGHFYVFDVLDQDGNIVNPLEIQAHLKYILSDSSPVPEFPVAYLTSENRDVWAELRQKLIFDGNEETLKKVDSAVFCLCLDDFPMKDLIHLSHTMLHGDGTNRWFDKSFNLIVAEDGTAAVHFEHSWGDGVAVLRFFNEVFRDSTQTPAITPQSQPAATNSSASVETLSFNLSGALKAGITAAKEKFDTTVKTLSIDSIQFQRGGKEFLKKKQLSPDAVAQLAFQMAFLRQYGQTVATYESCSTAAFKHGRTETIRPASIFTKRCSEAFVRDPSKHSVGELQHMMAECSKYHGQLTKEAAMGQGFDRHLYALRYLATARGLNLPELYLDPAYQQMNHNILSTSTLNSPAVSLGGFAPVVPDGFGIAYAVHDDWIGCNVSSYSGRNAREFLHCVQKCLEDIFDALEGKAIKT

[8] = biological target: T5, Carnitine O-palmitoyltransferase 1, muscle isoform (Homo sapiens, UniProt Q92523); assay: SUPPLEMENTARY: Inhibition of Carnitine palmitoyltransferase 1, muscle isoform; design: species or system Muscle tissue
T5 sequence (Q92523 whole entry): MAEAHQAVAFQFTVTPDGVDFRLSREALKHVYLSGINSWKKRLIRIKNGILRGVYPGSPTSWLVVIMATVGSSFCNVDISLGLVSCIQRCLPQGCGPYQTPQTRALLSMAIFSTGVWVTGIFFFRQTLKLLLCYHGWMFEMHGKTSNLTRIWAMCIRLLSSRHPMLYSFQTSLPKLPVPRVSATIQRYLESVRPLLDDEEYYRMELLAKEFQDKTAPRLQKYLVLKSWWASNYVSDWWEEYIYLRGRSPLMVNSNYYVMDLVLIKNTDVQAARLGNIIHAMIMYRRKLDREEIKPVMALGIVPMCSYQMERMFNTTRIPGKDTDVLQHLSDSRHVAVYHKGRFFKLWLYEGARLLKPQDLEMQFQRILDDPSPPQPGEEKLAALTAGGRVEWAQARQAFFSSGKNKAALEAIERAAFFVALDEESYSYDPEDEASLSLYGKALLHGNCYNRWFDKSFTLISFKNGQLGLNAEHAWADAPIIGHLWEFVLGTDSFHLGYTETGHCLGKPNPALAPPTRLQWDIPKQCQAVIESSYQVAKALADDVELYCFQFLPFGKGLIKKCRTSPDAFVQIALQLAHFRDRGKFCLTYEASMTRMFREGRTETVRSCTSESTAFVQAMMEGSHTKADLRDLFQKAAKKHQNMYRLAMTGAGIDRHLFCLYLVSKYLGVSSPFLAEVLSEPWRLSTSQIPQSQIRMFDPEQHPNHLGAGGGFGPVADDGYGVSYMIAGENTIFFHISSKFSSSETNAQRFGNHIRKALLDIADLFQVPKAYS

Row | SMILES | Papp [1] [×10⁻⁶ cm/s] | solubility kinetic [2] [µg/mL] | IC50 [3] [nM] | IC50 [4] [nM] | logD [5] | IC50 [6] [nM] | IC50 [7] [nM] | IC50 [8] [nM]
1 | O=C(COc1ccccc1)N1CCCC[C@@H]1c1nc(-c2ccc([N+](=O)[O-])o2)no1 | 5.09 | 6 (≈ 15.1 µM) | 297 | 68.2 | 2.53 | 9990 | 35700 | > 100000
2 | N#Cc1ccc(C#C[C@H]2CCCCN2C(=O)COc2ccccc2)cc1 | 0.61 | 1 (≈ 2.9 µM) | 190 | 164 | 3.56 | > 100000 | > 100000 | > 100000
3 | N#Cc1cccc(-c2nc([C@H]3CCCCN3C(=O)COc3ccccc3)no2)c1 | 3.83 | < 1 | 412 | 84.8 | 3.17 | 15600 | > 100000 | > 100000
4 | O=C1CCCN1c1cccc(-c2nc([C@H]3CCCCN3C(=O)COc3ccccc3)no2)c1 | 2.33 | 9 (≈ 20.2 µM) | 165 | 142 | 3.07 | 38400 | > 100000 | > 100000
5 | O=C(COc1ccccc1)N1CCCC[C@@H]1c1noc(-c2cccc(-n3cn[nH]c3=O)c2)n1 | 3.47 | 48 (≈ 108 µM) | 334 | 59.1 | 2.35 | 12000 | > 100000 | > 100000
6 | CCN(CC)C(=O)c1ccc(-c2noc([C@H]3CCCCN3C(=O)COc3ccccc3)n2)cc1 | 1.49 | 31 (≈ 67 µM) | 1040 | 40.2 | 3.3 | 19500 | 13200 | > 100000
7 | O=C1CCN1c1cccc(-c2n[nH]c([C@H]3CCCCN3C(=O)COc3ccccc3)n2)c1 | 2 | 33 (≈ 76.5 µM) | 316 | 114 | 2.9 | 44200 | 74700 | > 100000

The next lines start with the values.

Row | Papp [1] [×10⁻⁶ cm/s] | solubility kinetic [2] [µg/mL] | IC50 [3] [nM] | IC50 [4] [nM] | logD [5] | IC50 [6] [nM] | IC50 [7] [nM] | IC50 [8] [nM] | SMILES
8 | 2.22 | 5 (≈ 10.6 µM) | 32 | 16.7 | 2.37 | > 100000 | > 100000 | 531 | Cc1cc(C)cc(S(=O)(=O)N2CCc3ccc(C(=O)Nc4nc(CC(=O)O)cs4)cc32)c1
9 | 1.36 | 64 (≈ 146 µM) | 95.4 | 134 | 2.59 | 21000 | > 100000 | 51800 | COc1ccc(Cl)cc1S(=O)(=O)N[C@@H]1CCCN(C(=O)COc2ccccc2)C1
10 | 0.27 | 133 (≈ 252 µM) | 10.1 | 15.1 | 0.98 | 38600 | > 100000 | 12000 | COc1ccc(Cl)cc1S(=O)(=O)c1cn(CCCC(=O)O)c2ccc(C(=O)Nc3ccccc3)cc12
11 | 2.86 | 6 (≈ 12 µM) | 28.9 | 36.7 | 2.98 | 453 | 1420 | 6780 | COc1ccc(Cl)cc1S(=O)(=O)N1C[C@@H](C)c2ccc(C(=O)Nc3ccc(C(=O)O)cc3)cc21
12 | 6.19 | 402 (≈ 921 µM) | 118 | 92.3 | 0.73 | 53000 | > 100000 | 30300 | Cc1sc([C@H]2CCCCN2C(=O)COc2ccccc2)nc1-c1cccc(C(=O)O)c1
13 | 3.17 | > 615 | 31.9 | 42.4 | 0.5 | > 100000 | > 100000 | 797 | Cc1cc(C)cc(S(=O)(=O)N2CCOc3ccc(C(=O)Nc4nc(CC(=O)O)cs4)cc32)c1
14 | 0.39 | 70 (≈ 136 µM) | 125 | 166 | 0.12 | > 100000 | > 100000 | 1730 | COc1ccc(Cl)cc1S(=O)(=O)c1nn(C)c2ccc(C(=O)Nc3ccc(CC(=O)O)cc3)cc12
